In the test the target is T1, FamC1 (Fischerella ambigua, UniProt A0A076N4W8, N137A).
T1 construct: gene ambU4; recombinant; homodimer in crystal
Nature of the test: X-ray crystallography, […] A. Particulars: Ca1 site empty, Ca2 bound; substrate-binding pocket; ligand came from the crystallization solution, not added on purpose.

SMILES strings stand for the structures.

T1 sequence (A0A076N4W8 entry or part of it N137A): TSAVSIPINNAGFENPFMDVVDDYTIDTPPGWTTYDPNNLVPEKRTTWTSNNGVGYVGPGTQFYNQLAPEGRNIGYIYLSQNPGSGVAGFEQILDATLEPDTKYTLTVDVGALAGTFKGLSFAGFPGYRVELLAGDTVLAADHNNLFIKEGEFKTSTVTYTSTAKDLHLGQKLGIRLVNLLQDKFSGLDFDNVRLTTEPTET

Turning to `N=C(N)NCCC[C@@H]1NC(=O)[C@H]2CCCN2C1=O` [CI-4], the “X-ray crystallography, 1.48 A” value is “The N137A crystal was grown in the same crystallization condition and one molecule of CI-4”.

These data come from PMC9063808, “Structural insights into the calcium dependence of Stig cyclases” (RSC Advances, 2019).
